From PubChem BioAssay (NCI)
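Method: 48-hour compound exposure of cells in 96-well plates, five concentrations, linear interpolation of endpoints. GI50 = concentration required for 50% inhibition of growth. TGI: total growth inhibition.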

Experiments:
Assay in all cases: NCI-60 cell line screen, 48 h
SF-268 CNS = test system: SF-268 CNS
OVCAR-4 ovarian = test system: OVCAR-4 ovarian
COLO 205 colon = test system: COLO 205 colon
NCI/ADR-RES ovarian = test system: NCI/ADR-RES ovarian
HL-60(TB) leukemia = test system: HL-60(TB) leukemia
SK-OV-3 ovarian = test system: SK-OV-3 ovarian
HOP-92 NSCLC = test system: HOP-92 NSCLC
CAKI-1 renal = test system: CAKI-1 renal
EKVX NSCLC = test system: EKVX NSCLC
MALME-3M melanoma = test system: MALME-3M melanoma
K-562 leukemia = test system: K-562 leukemia
RPMI-8226 leukemia = test system: RPMI-8226 leukemia
MOLT-4 leukemia = test system: MOLT-4 leukemia
NCI-H23 lung = test system: NCI-H23 lung
RXF 393 renal = test system: RXF 393 renal
OVCAR-8 ovarian = test system: OVCAR-8 ovarian
SF-295 CNS = test system: SF-295 CNS
SK-MEL-2 melanoma = test system: SK-MEL-2 melanoma

| SMILES | TGI (SF-268 CNS) | TGI (OVCAR-4 ovarian) | TGI (COLO 205 colon) | TGI (NCI/ADR-RES ovarian) | TGI (HL-60(TB) leukemia) | TGI (SK-OV-3 ovarian) | TGI (HOP-92 NSCLC) | TGI (CAKI-1 renal) | TGI (EKVX NSCLC) | TGI (MALME-3M melanoma) | TGI (K-562 leukemia) | TGI (RPMI-8226 leukemia) | TGI (MOLT-4 leukemia) | TGI (NCI-H23 lung) | TGI (RXF 393 renal) | TGI (OVCAR-8 ovarian) | TGI (SF-295 CNS) | TGI (SK-MEL-2 melanoma) | GI50 (CAKI-1 renal) | GI50 (K-562 leukemia) |
| --- | --- | --- | --- | --- | --- | --- | --- | --- | --- | --- | --- | --- | --- | --- | --- | --- | --- | --- | --- | --- |
| C=C1C(=O)OC2CC(C)C3C4OC4C(O)C3(C)C(O)C12 (stereo not given) | 71.7 µM | 59.7 µM | 51.6 µM | 91.9 µM | > 51.6 µM | 98.8 µM | 61.9 µM | 67.9 µM | 63.9 µM | 67.1 µM | 91.6 µM | 51.1 µM | 41.8 µM | 55.5 µM | 53.7 µM | 91.6 µM | 98 µM | 72.7 µM | – | – |
| COc1ccc(-c2c(-c3ccccc3)c(C)nc3nc(SC)nc(SC)c23)cc1OC | > 100 µM | – | 27.9 µM | – | 8.49 µM | > 100 µM | 48.2 µM | > 100 µM | > 100 µM | 38.5 µM | 32 µM | 26.1 µM | 71.3 µM | > 100 µM | > 100 µM | – | 31.5 µM | 60.6 µM | – | – |
| CCCCOP(C)(=O)C(NC(=O)OCC)(C(F)(F)F)C(F)(F)F (stereo not given) | > 100 µM | > 100 µM | > 100 µM | > 100 µM | > 100 µM | > 100 µM | > 100 µM | > 100 µM | > 100 µM | > 100 µM | > 100 µM | > 100 µM | > 100 µM | > 100 µM | > 100 µM | > 100 µM | > 100 µM | > 100 µM | – | – |
| CC12CCC(CC1)C(C)(C)O2 | 119 µM | 129 µM | 99.6 µM | 266 µM | > 93.9 µM | 223 µM | 95.2 µM | > 61.2 µM | 104 µM | 122 µM | 183 µM | 173 µM | 77.2 µM | 121 µM | 56.9 µM | 133 µM | 116 µM | 118 µM | 15.7 µM | 37.9 µM |
| CC(C)c1ccccc1SCc1cc(=O)cc(CSc2ccccc2C(C)C)o1 | 33.4 µM | 46.9 µM | > 100 µM | 41.5 µM | 82 µM | 48 µM | 36.7 µM | 49.4 µM | 38.4 µM | 44.4 µM | > 100 µM | > 100 µM | 93.3 µM | > 100 µM | > 100 µM | 54.9 µM | 67.5 µM | 34.5 µM | – | – |
| Cc1cccc(N2C(=O)C3c4[nH]c5ccc(C)cc5c4C4CCC(C(C)(C)C)CC4C3C2=O)c1 (stereo not given) | 34.9 µM | > 100 µM | > 100 µM | 48.5 µM | 40.3 µM | – | 57.6 µM | > 100 µM | 85.6 µM | 71.2 µM | > 100 µM | 41.1 µM | 29.7 µM | > 100 µM | – | 47.7 µM | 47.5 µM | > 100 µM | – | – |
| CSc1nc(N)c2c(-c3ccccc3)c3c(nc2n1)CCCC3 | – | > 100 µM | > 100 µM | > 100 µM | > 100 µM | > 100 µM | – | > 100 µM | > 100 µM | > 100 µM | > 100 µM | > 100 µM | > 100 µM | > 100 µM | 94.2 µM | > 100 µM | > 100 µM | – | – | – |
